From patent US9018194B2 (Nibon University, priority 2011, dated 2015)

Experiments:
[1] = biological target: T1, human VDR (Homo sapiens, UniProt P11473); test: VDR transcription induction activity, luciferase reporter assay (mouse osteopontin VDRE) in HEK293 cells transfected with human VDR; type: cell-based; set-up: expressed in transfected cells; host or cells: HEK293 cells; settings: for efficacy of VDR transcription induction, % of that of the natural hormone / concentration at which the highest transcription activity was shown: HEK293 cells; for efficacy of VDR transcription induction, % of that of the natural hormone: Sppx3-tk-LUC reporter, relative to 1,25(OH)2D3; for concentration at which the highest transcription activity was shown: 10^-8 M was the lowest concentration used
T1 sequence (P11473 1-427): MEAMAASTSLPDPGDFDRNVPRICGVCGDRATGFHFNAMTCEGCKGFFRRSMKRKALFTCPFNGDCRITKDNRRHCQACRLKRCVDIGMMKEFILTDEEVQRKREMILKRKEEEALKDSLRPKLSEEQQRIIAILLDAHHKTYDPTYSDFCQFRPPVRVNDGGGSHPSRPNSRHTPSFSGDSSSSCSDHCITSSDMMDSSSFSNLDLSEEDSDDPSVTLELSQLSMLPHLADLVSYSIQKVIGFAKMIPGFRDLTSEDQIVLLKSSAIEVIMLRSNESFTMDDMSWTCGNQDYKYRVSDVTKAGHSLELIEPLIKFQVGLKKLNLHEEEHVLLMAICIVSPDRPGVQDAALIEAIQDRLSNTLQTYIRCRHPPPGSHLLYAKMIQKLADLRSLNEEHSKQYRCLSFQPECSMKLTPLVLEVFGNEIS
Procedure: Briefly, HEK cells were transfected with human VDR expression vector (pCMX-VDR) and expression vectors for VDR responsive luciferase (Sppx3-tk-LUC) and β-galactosidase by the calcium phosphate method. Eight hours later, compounds were added to the cells. After culturing for 16-24 hr, cells were harvested, and the activities of luciferase and β-galactosidase were measured. Luciferase activity values were corrected with β-galactosidase activity values.

[2] = biological target: T1, human VDR; settings: for VDR binding ability, rank in words: among ADTK1 through ADTK4

Question: For C=C1[C@H](O)CC(=C/C=C2\CCC[C@]3(C)[C@@H]([C@H](C)CC#C[C@H](O)CC45CC6CC(CC(C6)C4)C5)CC[C@@H]23)C[C@H]1O [ADTK3, (25R)-26-(1-Adamantyl)-1α,25-dihydroxy-2-methylene-23,23,24,24-tetradehydro-19,27-dinorvitamin D3], which “efficacy of VDR transcription induction, % of that of the natural hormone” value (“efficacy … % of that of the natural hormone” below) [1] is on record?
Answer: The value was 72%.

Question: What about the “concentration at which the highest transcription activity was shown” value (shortened to “concentration”) [1] of the same molecule?
Answer: Its value is “around 10^−7 M”.

Question: And the “VDR binding ability, rank in words” value [2]?
Answer: Its value is “lowest VDR binding ability”.

Question: How did the “efficacy … % of that of the natural hormone” value [1] turn out when C=C1[C@H](O)CC(=C/C=C2\CCC[C@]3(C)[C@@H]([C@H](C)CC#C[C@@H](O)CC45CC6CC(CC(C6)C4)C5)CC[C@@H]23)C[C@H]1O [ADTK4, (25S)-26-(1-Adamantyl)-1α,25-dihydroxy-2-methylene-23,23,24,24-tetradehydro-19,27-dinorvitamin D3] was run?
Answer: The value was 54%.

Question: And the “concentration” value [1]?
Answer: Its value is “around 10^−7 M”.

Question: What does the source list for “(25R)-25-(1-Adamantyl)-1α,25-dihydroxy-2-methylene-23,23,24,24-tetradehydro-19,26,27-trinorvitamin D3 [ADTK2]”?
Answer: efficacy of VDR transcription induction, % of that of the natural hormone [1]: 66%; concentration at which the highest transcription activity was shown [1]: 10^−8 M; type of activity at VDR (in words) ([1]; HEK293 luciferase assay, alone and in co-presence of 1,25(OH)2D3): partial agonist; VDR binding ability, rank in words [2]: highest VDR binding activity; affinity for human VDR relative to the natural hormone 1,25(OH)2D3 ([2]; competition with [3H]-1,25(OH)2D3, 1,25(OH)2D3 = 100%): 67%

Question: Which “efficacy … % of that of the natural hormone” value [1] does the source give for “(25S)-25-(1-Adamantyl)-1α,25-dihydroxy-2-methylene-23,23,24,24-tetradehydro-19,26,27-trinorvitamin D3 [ADTK1]” here?
Answer: Its value is 40%.

Question: And the “concentration” value [1]?
Answer: Its value is “around 10^−7 M”.
